Experimental data published in publication PMC12337082 (Journal of Biochemical and Molecular Toxicology, 2025).
“Also recorded” adds a separate entry of the source. Where two headings read alike, the source gives them in different places.

Assays:
MCF‐7 [1] = details: cited from earlier work
MDA‐MB‐231 [2] = details: MDA‐MB‐231, 24 h, cited from earlier work
PGE2 release [3] = assay: PGE2 ELISA, MCF‐7; format: cell-based, human; details: MCF‐7, 3 µM
Experimental: (§1) PGE2 ELISA kit (ENZO, ADI‐900‐001) was used to determine prostaglandin synthesis levels. MCF‐7 and MDA‐MB‐231 breast cancer cells were cultured at a density of 1 × 10^6 cells/well in a 6‐well culture dish. […] Following 24 h of incubation, the medium was replaced with a fresh one, 10 µM arachidonic acid was added, and it was further incubated for 1 h. The PGE2 levels were determined according to the kit protocol.

PGE2 release [4] = assay: PGE2 ELISA, MDA‐MB‐231; format: cell-based, human; details: MDA‐MB‐231, 3 µM
Experimental: as §1

[5] = tested on: multiple myeloma cell lines; set-up: method as in Yasui et al. (2007) [63]; details: 48 h, ref Yasui et al. (2007) [63]; cited from earlier work
MCF‐7 [6] = assay: MTT cell viability assay, MCF‐7; format: cell-based, human; details: for IC50: Homo sapiens, MCF7, MTT
Description: (§2) MCF‐7, MDA‐MB‐231, and L‐929 mouse fibroblast cell lines were obtained from the American Type Culture Collection (ATCC, Manassas, Virginia, USA). MCF‐7 is a hormone‐responsive, differentiated mammary epithelium cell line with an ER+, PR+, and HER2‐ pattern (ATCC, HTB‐22). MDA‐MB‐231 is a triple‐negative differentiated mammary epithelium cell line (ATCC, HTB‐26). The L‐929 mouse fibroblast cell line is derived from the normal subcutaneous connective tissue of a mouse and is commonly used in cytotoxicity assays (ATCC, CCL‐1). All cell lines were cultured in DMEM medium (Dulbecco's Modified Eagle Medium, Gibco), supplemented with 10% fetal bovine serum (Gibco), 1% glutamine, and penicillin/streptomycin (Gibco) in a humidified atmosphere containing 5% CO2 at 37°C. Cell viability was tested using Trypan blue staining.
(§3) The MTT [3‐(4,5‐dimethylthiazol‐2‐yl)−2,5‐diphenyltetrazolium bromide] assay is a colorimetric assay for determining cell metabolic activity. In the MTT assay, the yellow dye MTT that dissolves in water is changed by mitochondrial reductase into a purple formazan that is non‐soluble. The water‐insoluble formazan produced is solubilized in a solubilization buffer, and absorbances are detected.
(§4) In 96‐well plates, the cells were cultivated at a density of 5 × 10^3 cells/well using 100 µL medium. […] 10 μL of the MTT labeling reagent (final concentration 0.5 mg/mL) were added to each well at the end of the incubation periods, and the wells were incubated for an additional 4 h. Next, each well received 100 μL of solubilization buffer (10% SDS in 0.01 M HCl) and was overnight incubated, and the absorbance of formazan products was evaluated at 550 nm using a multi‐mode microplate reader (Synergy H1, Biotech Instruments Inc., Vermont, USA). The results were normalized relative to the absorbances of calculated percent concentrations of DMSO. All tests involved three replicates with three independent experiments.
(§5) All statistical evaluations, including t‐tests and IC50 values, were calculated using the GraphPad Prism software tool (v6.0, GraphPad Software Inc., San Diego, USA). Statistical significance was defined as p ˂ 0.05 (*p < 0.05, **p < 0.01, ***p < 0.001, ****p < 0.0001).

MDA‐MB‐231 [7] = assay: MTT cell viability assay, MDA‐MB‐231; format: cell-based, human; details: for IC50: Homo sapiens, MTT
Description: as §2, §3, §4, §5

[8] = tested on: L‐929 mouse fibroblast cell line; assay: MTT cell viability assay, L‐929 control fibroblasts; format: cell-based; details: Mus musculus
Description: as §2, §3, §4, §5

MCF‐7 [9] = assay: Annexin V/PI staining, Tali image‐based cytometry, MCF‐7; format: cell-based, human; details: MCF‐7, 24 h
Description: (§6) To assess apoptosis and cell death, cells were stained with Annexin V‐PI dyes (Tali Apoptosis Kit‐Annexin V Alexa Fluor 488 and PI‐, Molecular Probes A10788, Invitrogen) and quantified using Tali Image‐Based Cytometer (Invitrogen) and fluorescence microscopy (Olympus CKX41 Inverted Phase Contrast Fluorescence Microscope furbished with reflected fluorescence illuminator CKX‐RFA).
(§7) To assess whether our compounds produce their cytotoxic effects through induction of apoptosis, apoptosis was investigated using Annexin V/PI labeling and MMP methods (Figures 4A−C). In addition, by utilizing TALI image‐based cytometry and fluorescent microscopy, the number of cells was analyzed for different concentrations of agents (Table 4).

MDA‐MB‐231 [10] = assay: Annexin V/PI staining, Tali image‐based cytometry, MDA‐MB‐231; format: cell-based, human; details: MDA‐MB‐231, 24 h
Description: as §6, §7

MCF‐7 [11] = assay: Mitochondrial membrane potential (JC‐1) apoptosis assay, MCF‐7; format: cell-based, human; details: MCF‐7, 50 μM, 24 h, MMP assay
Experimental: (§8) Apoptosis was also investigated by evaluating mitochondrial membrane potential changes (MMP assay). MCF‐7, MDA‐MB‐231, and L‐929 cells were stained with JC‐1 dye according to the manufacturer's protocols (JC‐1 MMP Assay Kit, KA1324, Abnova). The apoptotic to healthy cell ratio was calculated using absorbances collected from two different fluorescence channels (535/595 for healthy cells, 485/535 for apoptotic cells) (Synergy H1, Biotech Instruments Inc., Vermont, USA).

MDA‐MB‐231 [12] = assay: Mitochondrial membrane potential (JC‐1) apoptosis assay, MDA‐MB‐231; format: cell-based, human; details: MDA‐MB‐231, 50 μM, 24 h, MMP assay
Experimental: as §8

L‐929 = assay: Mitochondrial membrane potential (JC‐1) apoptosis assay, L‐929; format: cell-based, mouse; details: L‐929, 50 μM, 24 h, MMP assay
Experimental: as §8

COX‐2 [13] = assay: Western blot COX‐2 protein expression, MCF‐7; format: cell-based, human; details: 24 h
Experimental: (§9) Total protein levels were measured using the Take3 Multi‐Volume Plate (Synergy H1, BioTek Instruments Inc., Vermont, USA). In accordance with the classical protocol, transferred proteins were exposed to the following primary antibodies: Beta‐actin (NB600‐501, Novus Biologicals), Bax (SPM336, NBP2‐32809), Bcl‐2 (100/D5, NBP2‐15200), cleaved PARP (194C1439, NBP2‐27335), and COX‐2 (D‐12:sc‐166475, Santa Cruz). The bands were visualized with chemiluminescent HRP substrates (Western Bright ECL‐Advansta, K‐12045‐050). Using a chemiluminescence imaging system (Celvin S, BioStep), the relative quantification was done based on the level of β‐actin proteins.

COX‐2 [14] = assay: Western blot COX‐2 protein expression, MDA‐MB‐231; format: cell-based, human; details: 24 h
Experimental: as §9

Bax/Bcl‐2 ratio = assay: Western blot Bax/Bcl‐2 ratio in breast cancer cell lines; format: cell-based, human; details: 50 and 75 µM, 24 h
Experimental: as §9

c‐PARP = assay: Western blot cleaved PARP, MDA‐MB‐231; format: cell-based, human; details: MDA‐MB‐231, 24 h, all concentrations (50 and 75 µM); not measurable in MCF‐7
Experimental: as §9

[15] = tested on: MCF‐7, MDA‐MB‐231, and L‐929; assay: MTT cell viability assay, statements over all cell lines; format: cell-based; details: 25 µM; MCF‐7, MDA‐MB‐231 and L‐929; not dose‐dependent
Description: as §2, §3, §4
All statistical evaluations, including t‐tests and IC50 values, were calculated using the GraphPad Prism software tool (v6.0, GraphPad Software Inc., San Diego, USA). […]

[16] = MCF‐7 in comparison to L‐929, 24 h
[17] = MCF‐7 in comparison to L‐929, 48 h
[18] = MDA-MB-231, 24 h, MDA‐MB‐231, 24 h
[19] = MDA-MB-231, 48 h, MDA‐MB‐231, 48 h
[20] = MDA‐MB‐231 in comparison to L‐929, 24 h
[21] = MDA‐MB‐231 in comparison to L‐929, 48 h

O=c1[nH]cc(F)c(=O)[nH]1 [5‐FU]
IC50 (MCF‐7 [1]; MCF‐7, 24 h, ref Badawi et al. (2023) [68]): 17 µM | IC50 (MDA‐MB‐231 [2]; ref Badawi et al. (2023) [68]): 11.7 µM

CS(=O)(=O)c1ccc(-c2cc(Br)sc2-c2ccc(F)cc2)cc1 [DUP‐697]
Reduction of PGE2 release (PGE2 release [3]): 46% | Reduction of PGE2 release (PGE2 release [4]): 88%

CCc1cccc2c3c([nH]c12)[C@@](CC)(CC(=O)O)OCC3 [Etodolac R‐enantiomer SDX‐101]
IC50 [5]: 490 µM

CCc1cc(Br)cc2c3c([nH]c12)C(CC)(CCO)OCC3 (centres unmarked) [Etodolac analog SDX‐308]
IC50 [5]: 23.8 µM

CC(C)Cc1ccc(C(C)C(=O)O)cc1 (centres unmarked) [Ibuprofen]
IC50 (MCF‐7 [1]; MCF‐7, 48 h, ref Daniel Pedro‐Hernández et al. (2020) [67]): 92.1 µM

O=C(O)C(=O)O.[NH-][C@@H]1CCCC[C@H]1[NH-].[Pt+2] [Oxaliplatin]
IC50 (MCF‐7 [1]; MCF‐7, 24 h, ref Raymond et al. (1997) [66]): 7.4 µM | IC50 (MDA‐MB‐231 [2]; ref Raymond et al. (1997) [66]): 17.9 µM

CCc1cccc2c3c([nH]c12)C(CC)(CC(=O)NN1C(=O)CSC1c1c(F)cccc1F)OCC3 (centres unmarked) [SGK 217, 3‐(2‐(1,8‐Diethyl‐1,3,4,9‐tetrahydropyrano[3,4‐b]indole‐1‐yl)acetylhydrazono)‐2‐(2,6‐difluorophenyl)‐4‐thiazolidinone]
IC50 (MCF‐7 [6]; MCF‐7, 24 h): 18 ± 3.4 µM | IC50 (MCF‐7 [6]; MCF‐7, 48 h): 12.2 ± 2 µM | IC50 (MCF‐7 [6]; MCF‐7, 72 h): 26.7 ± 4.8 µM | Selectivity index (SI) (MCF‐7 [6]; [16]): 4.0 | Selectivity index (SI) (MCF‐7 [6]; [17]): 2.4 | Selectivity index (SI) (MCF‐7 [6]; MCF‐7 in comparison to L‐929, 72 h): 1 | IC50 (MDA‐MB‐231 [7]; [18]): 36 ± 1.6 µM | IC50 (MDA‐MB‐231 [7]; [19]): 13.8 ± 1.6 µM | IC50 (MDA‐MB‐231 [7]; MDA-MB-231, 72 h, MDA‐MB‐231, 72 h): 14.6 ± 1.4 µM | Selectivity index (SI) (MDA‐MB‐231 [7]; [20]): 2.0 | Selectivity index (SI) (MDA‐MB‐231 [7]; [21]): 2.1 | Selectivity index (SI) (MDA‐MB‐231 [7]; MDA‐MB‐231 in comparison to L‐929, 72 h): 1.8 | IC50 ([8]; L929, 24 h, L‐929, 24 h): 72 ± 3.2 µM | IC50 ([8]; L929, 48 h, L‐929, 48 h): 29.6 ± 0.94 µM | IC50 ([8]; L929, 72 h, L‐929, 72 h): 26.3 ± 0.112 µM | Apoptotic cells (MCF‐7 [9]; 25 µM): 6% | Dead cells (MCF‐7 [9]; 25 µM): 7% | Live cells (MCF‐7 [9]; 25 µM): 87% | Apoptotic cells (MCF‐7 [9]; 50 µM): 16% | Dead cells (MCF‐7 [9]; 50 µM): 10% | Live cells (MCF‐7 [9]; 50 µM): 74% | Apoptotic cells (MCF‐7 [9]; 75 µM): 18% | Dead cells (MCF‐7 [9]; 75 µM): 27% | Live cells (MCF‐7 [9]; 75 µM): 55% | Apoptotic cells (MDA‐MB‐231 [10]; 25 µM): 0% | Dead cells (MDA‐MB‐231 [10]; 25 µM): 7% | Live cells (MDA‐MB‐231 [10]; 25 µM): 93% | Apoptotic cells (MDA‐MB‐231 [10]; 50 µM): 23% | Dead cells (MDA‐MB‐231 [10]; 50 µM): 11% | Live cells (MDA‐MB‐231 [10]; 50 µM): 66% | Increase in apoptosis compared to the control group (MCF‐7 [11]): 51% | Increase in apoptosis compared to the control group (MDA‐MB‐231 [12]): 85% | Increase in apoptosis compared to the control group (L‐929): 3% | Decrease in COX‐2 protein expression compared to the control group (COX‐2 [13]; MCF‐7, 50 µM): 56% | Decrease in COX‐2 protein expression compared to the control group (COX‐2 [13]; MCF‐7, 75 µM): 85% | Decrease in COX‐2 protein expression compared to the control group (COX‐2 [14]; MDA‐MB‐231, 50 µM): 61% | Decrease in COX‐2 protein expression compared to the control group (COX‐2 [14]; MDA‐MB‐231, 75 µM): 84% | Bax/Bcl‐2 ratio change (Bax/Bcl‐2 ratio): significantly rise | c‐PARP (89‐kD fragment) protein change (c‐PARP): consistent activation; also recorded: significant increase

CCc1cccc2c3c([nH]c12)C(CC)(Cc1n[nH]c(=S)n1Cc1ccccc1)OCC3 (centres unmarked) [SGK 242, 5‐[(1,8‐Diethyl‐1,3,4,9‐tetrahydropyrano[3,4‐b]indole‐1‐yl)methyl]‐4‐benzyl‐2,4‐dihydro‐3H‐1,2,4‐triazole‐3‐thione]
IC50 (MCF‐7 [6]; MCF‐7, 24 h): 22 ± 0.1 µM | IC50 (MCF‐7 [6]; MCF‐7, 48 h): 12 ± 3.3 µM | Selectivity index (SI) (MCF‐7 [6]; [16]): 1.7 | Selectivity index (SI) (MCF‐7 [6]; [17]): 3.6 | IC50 (MDA‐MB‐231 [7]; [18]): 31 ± 2.5 µM | IC50 (MDA‐MB‐231 [7]; [19]): 24 ± 1.2 µM | Selectivity index (SI) (MDA‐MB‐231 [7]; [20]): 1.2 | Selectivity index (SI) (MDA‐MB‐231 [7]; [21]): 1.8 | IC50 ([8]; L929, 24 h, L‐929, 24 h): 38 ± 8.05 µM | IC50 ([8]; L929, 48 h, L‐929, 48 h): 44.2 ± 2.45 µM | Toxicity on all cell lines [15]: severe toxicity
